Source: patent publication US20240092799A1, “MNK INHIBITORS” (Hepagene Therapeutics (HK) Limited, priority 2020, published 2024)

Biological target: MNK2 (Homo sapiens (Human), UniProt Q9HBH9)
Experiment: MNK Biochemical Enzymatic Assay (ADP-Glo), MNK2 binding assay
Experimental: MNK Biochemical Enzymatic Assay. This protocol establishes the binding assays for MNK1 and MNK2 using ADP-Glo assay. MNK phosphorylates the substrate and converts ATP to ADP, which was detected by Envision and used to reflect the reminding activity of MNK. Reagents and equipment used in the assay are listed below, followed by the protocol.
• a) Add 50 μL compound to 384-well dilution plate • b) Dilute compound 1:3 in succession in DMSO for each column for 10+0 pts (refer to dilution plate map) • c) Transfer 0.1 μL diluted compound solution in each row to 384 assay plate using Echo, each column containing 2 replicates (refer to assay plate map) • d) Add 5 μL enzyme working solution to 384-well assay plate, centrifuge 1000 RPM for 1 min • e) Incubate at 25° C. for 15 min • f) Add 5 μL substrate working solution to initiate reaction • g) Incubate at 25° C. for 60 min • h) Add 10 μL ADP Glo reagent, centrifuge 1000 RPM for 1 min • i) Incubate at 25° C. for 60 min • j) Add 20 μL kinase detection reagent, centrifuge 1000 RPM for 1 min • k) Incubate at 25° C. for 60 min • l) Read on Envision for US LUM as RLU • m) Data analysis: IC50s were determined based on a non-linear regression analysis of data collected.

MNK2, sequence (Q9HBH9 whole entry): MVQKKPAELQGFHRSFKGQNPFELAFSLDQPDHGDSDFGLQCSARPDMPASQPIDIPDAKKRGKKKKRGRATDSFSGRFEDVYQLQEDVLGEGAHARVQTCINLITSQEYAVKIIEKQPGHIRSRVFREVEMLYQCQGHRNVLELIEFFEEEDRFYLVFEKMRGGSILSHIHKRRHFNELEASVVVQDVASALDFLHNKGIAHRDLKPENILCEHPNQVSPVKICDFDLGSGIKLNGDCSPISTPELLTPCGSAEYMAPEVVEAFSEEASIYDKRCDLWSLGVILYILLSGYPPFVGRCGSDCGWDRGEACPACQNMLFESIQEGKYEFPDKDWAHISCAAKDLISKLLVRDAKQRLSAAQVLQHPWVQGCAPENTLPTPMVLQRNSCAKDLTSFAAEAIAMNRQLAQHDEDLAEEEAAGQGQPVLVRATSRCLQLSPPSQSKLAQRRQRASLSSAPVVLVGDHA

SMILES: Cc1cc(Nc2cc(NC(=O)N3CCCC3)ncn2)[n+]([O-])c2c1C(=O)NC21CCCCC1 [Compound XXIX-AQ, 4′-methyl-5′-oxo-2′-((6-(pyrrolidine-1-carboxamido)pyrimidin-4-yl)amino)-5′,6′-dihydrospiro[cyclohexane-1,7′-pyrrolo[3,4-b]pyridine] 1′-oxide]
- IC50: 10 to 100 nM

SMILES: O=C1NC2(CCCCC2)c2cc(Nc3ncnc4sccc34)sc21 [Compound X-B, 2′-(thieno[2,3-d]pyrimidin-4-ylamino)spiro[cyclohexane-1,4′-thieno[2,3-c]pyrrol]-6′(5′H)-one]
- IC50: 100 to 1000 nM

SMILES: Cc1c(N)ncnc1Nc1cc2c(s1)C(=O)NC21CCCCC1 [Compound X-D, 2′-((6-amino-5-methylpyrimidin-4-yl)amino)spiro[cyclohexane-1,4′-thieno[2,3-c]pyrrol]-6′(5′H)-one]
- IC50: 10 to 100 nM

SMILES: Nc1cc(Nc2cc3c(s2)C(=O)NC32CCCC2)ncn1 [Compound X-E, 2′-((6-aminopyrimidin-4-yl)amino)spiro[cyclopentane-1,4′-thieno[2,3-c]pyrrol]-6′(5′H)-one]
- IC50: 10 to 100 nM

SMILES: Cc1cc(-c2cc(-c3cc(N)ncn3)no2)c(=O)n2c1C(=O)NC21CCCCC1 [Compound XVIII, 6′-(3-(6-Aminopyrimidin-4-yl)isoxazol-5-yl)-8′-methyl-2′H-spiro[cyclohexane-1,3′-imidazo[1,5-a]pyridine]-1′,5′-dione]
- IC50: > 1000 nM

SMILES: Cc1nc(Nc2cc(C)c3c([n+]2[O-])C2(CCCCC2)NC3=O)cc(N[C@H]2CCOC2)n1 [Compound XXIX-AY, (S)-4′-methyl-2′-((2-methyl-6-((tetrahydrofuran-3-yl)amino)pyrimidin-4-yl)amino)-5′-oxo-5′,6′-dihydrospiro[cyclohexane-1,7′-pyrrolo[3,4-b]pyridine] 1′-oxide]
- IC50: 10 to 100 nM

SMILES: Nc1cc(Nc2cc3c(s2)C(=O)NC32CCNCC2)ncn1 [Compound VIII-A, 2′-((6-aminopyrimidin-4-yl)amino)spiro[piperidine-4,4′-thieno[2,3-c]pyrrol]-6′(5′H)-one]
- IC50: 10 to 100 nM

SMILES: Cc1cc(Nc2cc(NCCO)ncn2)[n+]([O-])c2c1C(=O)NC21CCCCC1 [Compound XXIX-I, 2′-((6-((2-hydroxyethyl)amino)pyrimidin-4-yl)amino)-4′-methyl-5′-oxo-5′,6′-dihydrospiro[cyclohexane-1,7′-pyrrolo[3,4-b]pyridine] 1′-oxide]
- IC50: 10 to 100 nM

SMILES: O=C1NC2(CCCCC2)c2cc(Nc3cc(N[C@@H]4CCOC4)ncn3)sc21 [Compound XXIV-M, (R)-2′-((6-((tetrahydrofuran-3-yl)amino)pyrimidin-4-yl)amino)spiro[cyclohexane-1,4′-thieno[2,3-c]pyrrol]-6′(5′H)-one]
- IC50: 10 to 100 nM

SMILES: Nc1cc(Nc2cc3c(s2)C(=O)NC32CCOCC2)ncn1 [Compound XXII, 2′-((6-Aminopyrimidin-4-yl)amino)-2,3,5,6-tetrahydrospiro[pyran-4,4′-thieno[2,3-c]pyrrol]-6′(5′H)-one]
- IC50: 10 to 100 nM

SMILES: CC(=O)N(C)c1cccc(Nc2cc(Nc3cc(C)c4c([n+]3[O-])C3(CCCCC3)NC4=O)ncn2)c1 [Compound XXIX-N, 4′-methyl-2′-((6-((3-(N-methylacetamido)phenyl)amino)pyrimidin-4-yl)amino)-5′-oxo-5′,6′-dihydrospiro[cyclohexane-1,7′-pyrrolo[3,4-b]pyridine] 1′-oxide]
- IC50: 10 to 100 nM

SMILES: CC1(C)COC(Nc2cc(Nc3nc4c(s3)C(=O)NC43CCCCC3)ncn2)=N1 [Compound XXVIII-E, 2′-((6-((4,4-dimethyl-4,5-dihydrooxazol-2-yl)amino)pyrimidin-4-yl)amino)spiro[cyclohexane-1,4′-pyrrolo[3,4-d]thiazol]-6′(5′H)-one]
- IC50: > 1000 nM

SMILES: Cc1cc(Nc2cc(N[C@H]3CCCOC3)ncn2)[n+]([O-])c2c1C(=O)NC21CCCCC1 [Compound XXIX-E, (S)-4′-methyl-5′-oxo-2′-((6-((tetrahydro-2H-pyran-3-yl)amino)pyrimidin-4-yl)amino)-5′,6′-dihydrospiro[cyclohexane-1,7′-pyrrolo[3,4-b]pyridine] 1′-oxide]
- IC50: 10 to 100 nM

SMILES: Cc1cc(Nc2cc(Nc3ccnn3C3CCNCC3)ncn2)[n+]([O-])c2c1C(=O)NC21CCCCC1 [Compound XXIX-AAR, 4′-methyl-5′-oxo-2′-((6-((1-(piperidin-4-yl)-1H-pyrazol-5-yl)amino)pyrimidin-4-yl)amino)-5′,6′-dihydrospiro[cyclohexane-1,7′-pyrrolo[3,4-b]pyridine] 1′-oxide]
- IC50: 0.1 to 10 nM

SMILES: Cc1cc(Nc2cc3c(s2)C(=O)NC32CCCCC2)ncn1 [Compound XXIII-I, 2′-((6-Methylpyrimidin-4-yl)amino)spiro[cyclohexane-1,4′-thieno[2,3-c]pyrrol]-6′(5′H)-one]
- IC50: 100 to 1000 nM

SMILES: CC(=O)N(C)c1cccc(Nc2cc(Nc3nc4c(s3)C(=O)NC43CCCCC3)ncn2)c1 [Compound XXVIII-I, N-methyl-N-(3-((6-((6′-oxo-5′,6′-dihydrospiro[cyclohexane-1,4′-pyrrolo[3,4-d]thiazol]-2′-yl)amino)pyrimidin-4-yl)amino)phenyl)acetamide]
- IC50: 10 to 100 nM

SMILES: O=C1NC2(CCCCC2)c2cc(Nc3cc(NC4CCCCC4)ncn3)sc21 [Compound XXIV-J, 2′-((6-(cyclohexylamino)pyrimidin-4-yl)amino)spiro[cyclohexane-1,4′-thieno[2,3-c]pyrrol]-6′(5′H)-one]
- IC50: 10 to 100 nM

SMILES: CCOC(=O)C1CCc2c(sc3ncnc(Nc4cc5c(s4)C(=O)NC54CCCCC4)c23)C1 (centres unmarked) [Compound XXV-5, Ethyl 4-((6′-oxo-5′,6′-dihydrospiro[cyclohexane-1,4′-thieno[2,3-c]pyrrol]-2′-yl)amino)-5,6,7,8-tetrahydrobenzo[4,5]thieno[2,3-d]pyrimidine-7-carboxylate]
- IC50: 100 to 1000 nM

SMILES: CC(=O)N1CC[C@H](Nc2cc(Nc3cc(C)c4c([n+]3[O-])C3(CCCCC3)NC4=O)ncn2)C1 [Compound XXIX-J, (S)-2′-((6-((1-acetylpyrrolidin-3-yl)amino)pyrimidin-4-yl)amino)-4′-methyl-5′-oxo-5′,6′-dihydrospiro[cyclohexane-1,7′-pyrrolo[3,4-b]pyridine] 1′-oxide]
- IC50: 100 to 1000 nM

SMILES: Cc1cc(Nc2ncnc(Nc3ccccn3)c2C)[n+]([O-])c2c1C(=O)NC21CCCCC1 [Compound XXIX-AN, 4′-methyl-2′-((5-methyl-6-(pyridin-2-ylamino)pyrimidin-4-yl)amino)-5′-oxo-5′,6′-dihydrospiro[cyclohexane-1,7′-pyrrolo[3,4-b]pyridine] 1′-oxide]
- IC50: > 1000 nM

SMILES: Cc1nc(Nc2ccccn2)cc(Nc2cc(C)c3c([n+]2[O-])C2(CCCCC2)NC3=O)n1 [Compound XXIX-AAB, 4′-methyl-2′-((2-methyl-6-(pyridin-2-ylamino)pyrimidin-4-yl)amino)-5′-oxo-5′,6′-dihydrospiro[cyclohexane-1,7′-pyrrolo[3,4-b]pyridine] 1′-oxide]
- IC50: 100 to 1000 nM

SMILES: Cc1cc(Nc2cc(NC3CCS(=O)(=O)C3)ncn2)[n+]([O-])c2c1C(=O)NC21CCCCC1 (centres unmarked) [Compound XXIX-AR, 2′-((6-((1,1-dioxidotetrahydrothiophen-3-yl)amino)pyrimidin-4-yl)amino)-4′-methyl-5′-oxo-5′,6′-dihydrospiro[cyclohexane-1,7′-pyrrolo[3,4-b]pyridine] 1′-oxide]
- IC50: 100 to 1000 nM

SMILES: O=C(Nc1cc(Nc2cc3c(s2)C(=O)NC32CCCCC2)ncn1)c1ccccc1 [Compound XX-E, N-(6-((6′-oxo-5′,6′-dihydrospiro[cyclohexane-1,4′-thieno[2,3-c]pyrrol]-2′-yl)amino)pyrimidin-4-yl)benzamide]
- IC50: 10 to 100 nM

SMILES: O=C1NC2(CCCCC2)c2nc(Nc3cc(N[C@H]4C[C@H](O)C4)ncn3)sc21 [Compound XXVIII-N, Trans-2′-((6-(((1r,3r)-3-hydroxycyclobutyl)amino)pyrimidin-4-yl)amino)spiro[cyclohexane-1,4′-pyrrolo[3,4-d]thiazol]-6′(5′H)-one]
- IC50: 10 to 100 nM

SMILES: Cc1cc(-c2cc(-c3cc(N)ncn3)no2)cc2c1C(=O)NC21CCCCC1 [Compound VII, 6′-(3-(6-Aminopyrimidin-4-yl)isoxazol-5-yl)-4′-methylspiro[cyclohexane-1,1′-isoindolin]-3′-one]
- IC50: > 1000 nM

SMILES: CN(C)C(=O)C1CCc2c(sc3ncnc(Nc4cc5c(s4)C(=O)NC54CCCCC4)c23)C1 (centres unmarked) [Compound XXV-B, N,N-Dimethyl-4-((6′-oxo-5′,6′-dihydrospiro[cyclohexane-1,4′-thieno[2,3-c]pyrrol]-2′-yl)amino)-5,6,7,8-tetrahydrobenzo[4,5]thieno[2,3-d]pyrimidine-7-carboxamide]
- IC50: 10 to 100 nM

SMILES: NC1CCN(c2cc(Nc3cc4c(s3)C(=O)NC43CCCCC3)ncn2)C1 (centres unmarked) [Compound XXIII-D, 2′-((6-(3-Aminopyrrolidin-1-yl)pyrimidin-4-yl)amino)spiro[cyclohexane-1,4′-thieno[2,3-c]pyrrol]-6′(5′H)-one]
- IC50: > 1000 nM

SMILES: COCCNc1cc(Nc2cc3c(s2)C(=O)NC32CCCCC2)ncn1 [Compound XXIII-W, 2′-((6-((2-methoxyethyl)amino)pyrimidin-4-yl)amino)spiro[cyclohexane-1,4′-thieno[2,3-c]pyrrol]-6′(5′H)-one]
- IC50: 10 to 100 nM

SMILES: Cc1cc(Nc2cc(N[C@H]3CCC[C@@H]3O)ncn2)[n+]([O-])c2c1C(=O)NC21CCCCC1 [Compound XXIX-V, 2′-((6-(((1S,2S)-2-hydroxycyclopentyl)amino)pyrimidin-4-yl)amino)-4′-methyl-5′-oxo-5′,6′-dihydrospiro[cyclohexane-1,7′-pyrrolo[3,4-b]pyridine] 1′-oxide]
- IC50: 10 to 100 nM
